We go through 26 compounds from patent publication US8536202B2, “Triazole-substituted anthranilamides as pesticides” (Bayer Cropscience AG, priority 2010, dated 2013).

Like-named read-outs stand apart in the source and are kept apart here.

For series [1], the system named is larvae of the mustard beetle (Phaedon cochleariae). Description: Phaedon test (PHAECO spray treatment). It is filed as in vivo. The following applies: 168 h, read-out: activity in %. In short, it runs like this:
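Compound dissolved in acetone/dimethylformamide with alkylaryl polyglycol ether emulsifier, then diluted with emulsifier-containing water to test concentration for spray treatment of Phaedon cochleariae larvae. Activity scored after 7 days as % larvae killed (100% = all dead, 0% = none).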

Series [2] has as its system caterpillars of the armyworm (Spodoptera frugiperda). Description: Spodoptera frugiperda test (SPODFR spray treatment). It is filed as in vivo. Conditions: 168 h; for pest or weed control at 100 g/ha: read-out: activity in %. The essentials: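 Maize leaf discs sprayed with compound diluted in emulsifier-containing water (acetone/DMF solvent, alkylaryl polyglycol ether emulsifier), dried, then infested with armyworm caterpillars. Kill scored after 7 days as % mortality, 100% = all caterpillars dead, 0% = none.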

Series [3] is described as follows: log P determination by HPLC on reversed-phase columns (EEC Directive 79/831 Annex V.A8). It is filed as physicochemical. Conditions: pH 2.7. In short, it runs like this:
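log P from reversed-phase LC-MS retention at pH 2.7, 0.1% formic acid water/acetonitrile gradient 10–95% acetonitrile. Calibrated against C3–C16 unbranched alkan-2-ones, interpolating linearly between adjacent alkanones.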

Setting [4] is: HPLC on reversed-phase columns (C 18), EEC Directive 79/831 Annex V.A8, read-out: logP.
Setting [5] is: reversed-phase C18 HPLC column, HPLC on reversed-phase columns (C 18), EEC Directive 79/831 Annex V.A8, read-out: logP.

As to `Cc1cc(I)cc(C(=O)NC2CC2)c1NC(=O)c1cc(Cn2ncc(C(F)(F)F)n2)nn1-c1ncccc1Cl` [Example 159], the pest or weed control at 100 g/ha in series [1] (100 g/ha, after 7 days) came out at 100%; in series [2] (100 g/ha, after 7 days), 100%. This compound yielded a chromatographic logP in series [3] of 3.45.
For the compound `CNC(=O)c1cc(Cl)cc(C)c1NC(=O)c1cc(Cn2nnc3cc(Br)ccc32)nn1-c1ncccc1Cl` [Example 86], the pest or weed control at 100 g/ha in series [1] (100 g/ha, after 7 days) came to 100%; in series [2] (100 g/ha, after 7 days) it was 100%. Moreover, the chromatographic logP in series [3] turned out to be 2.94.
Turning to `Cc1cc(I)cc(C(=O)NCC2CC2)c1NC(=O)c1cc(Cn2ncc(C(F)(F)C(F)(F)C(F)(F)F)n2)nn1-c1ncccc1Cl` [Example 382], the pest or weed control at 100 g/ha in series [1] and in series [2] was 100% each time. The chromatographic logP in series [3] (setting [4]) stood at 4.59.
In the case of `Cc1cc(C#N)cc(C(=O)NC(C)C2CC2)c1NC(=O)c1cc(Cn2nc(C(F)(F)F)c(C(F)(F)F)n2)nn1-c1ncccc1Cl` (stereo not drawn) [Example 413], the pest or weed control at 100 g/ha in series [1] (100 g/ha, after 7 days) was determined as 100%; in series [2] (100 g/ha, after 7 days), 100%. Moreover, the chromatographic logP in series [3] (setting [5]) was found to be 4.11.
As to `CC(C)(C)NC(=O)c1cc(Cl)cc(Cl)c1NC(=O)c1cc(Cn2cc(C(F)(C(F)(F)F)C(F)(F)F)nn2)nn1-c1ncccc1Cl` [Example 244], the pest or weed control at 100 g/ha amounted to 100% in series [1] (100 g/ha, after 7 days) and 100% in series [2] (100 g/ha, after 7 days). The chromatographic logP in series [3] (setting [5]) was found to be 4.13.
Consider `CNC(=O)c1cc(C#N)cc(C)c1NC(=O)c1cc(Cn2cc(-c3ccc(C(F)(F)F)cc3)nn2)nn1-c1ncccc1Cl` [Example 3], for which the pest or weed control at 100 g/ha was 100% in series [1] (100 g/ha, after 7 days) and 100% in series [2] (100 g/ha, after 7 days). In addition, the chromatographic logP in series [3] came to 2.99.
With `O=C(NC1CC1)c1cc(Cl)cc(Cl)c1NC(=O)c1cc(Cn2ncc(C(F)(C(F)(F)F)C(F)(F)F)n2)nn1-c1ncccc1Cl` [Example 280], the pest or weed control at 100 g/ha in series [1] (100 g/ha, after 7 days) was determined as 100%; in series [2] (100 g/ha, after 7 days), 100%. The compound further yielded a chromatographic logP in series [3] of 3.92.
`Cc1cc(Cl)cc(C(=O)NC(C)C2CC2)c1NC(=O)c1cc(Cn2ncc(C(F)(F)C(F)(F)C(F)(F)F)n2)nn1-c1ncccc1Cl` (stereo not drawn) [Example 379]: the pest or weed control at 100 g/ha in series [1] and in series [2] was 100% in each case. For the same compound, the chromatographic logP in series [3] (setting [4]) was 4.57.
As for `CNC(=O)c1cc(I)cc(C)c1NC(=O)c1cc(Cn2ncc(C(F)(F)C(F)(F)C(F)(F)F)n2)nn1-c1ncccc1Cl` [Example 377], the pest or weed control at 100 g/ha in series [1] and in series [2] was 100% each time. Besides, the chromatographic logP in series [3] (setting [4]) is 4.
For the compound `CCNC(=O)c1cc(I)cc(C)c1NC(=O)c1cc(Cn2cc(C(F)(F)C(F)(F)F)nn2)nn1-c1ncccc1Cl` [Example 311], the pest or weed control at 100 g/ha in series [1] (100 g/ha, after 7 days) was determined as 100%; in series [2] (100 g/ha, after 7 days), 100%. The chromatographic logP in series [3] was determined as 3.49.
As for `O=C(NC1CCC1)c1cc(Cl)cc(Cl)c1NC(=O)c1cc(Cn2ncc(C(F)(F)F)n2)nn1-c1ncccc1Cl` [Example 153], the pest or weed control at 100 g/ha in series [1] (100 g/ha, after 7 days) stood at 100%; in series [2] (100 g/ha, after 7 days) it was 100%. Further, the chromatographic logP in series [3] worked out at 3.56.
In the case of `Cc1cc(Cl)cc(C(=O)NC(C)C2CC2)c1NC(=O)c1cc(Cn2cc(C(F)(C(F)(F)F)C(F)(F)F)nn2)nn1-c1ncccc1Cl` (stereo not drawn) [Example 226], the pest or weed control at 100 g/ha in series [1] (100 g/ha, after 7 days) stood at 100%. This compound returned a pest or weed control at 20 g/ha in series [2] (20 g/ha, after 7 days) of 100%. In series [3] (setting [5]), the chromatographic logP came to 4.15.
Consider `Cc1cc(Cl)cc(C(=O)NC(C)C2CC2)c1NC(=O)c1cc(Cn2nc(C(F)(F)F)c(C(F)(F)F)n2)nn1-c1ncccc1Cl` (stereo not drawn) [Example 410], for which the pest or weed control at 100 g/ha in series [1] (100 g/ha, after 7 days) turned out to be 100%; in series [2] (100 g/ha, after 7 days), 100%. In addition, the chromatographic logP in series [3] is 4.5.
In the case of `Cc1cc(C#N)cc(C(=O)NC2CC2)c1NC(=O)c1cc(Cn2ncc(C(F)(C(F)(F)F)C(F)(F)F)n2)nn1-c1ncccc1Cl` [Example 256], the pest or weed control at 100 g/ha in series [1] (100 g/ha, after 7 days) came to 100%; in series [2] (100 g/ha, after 7 days), 100%. Moreover, in series [3] (setting [5]), the chromatographic logP is 3.63.
Take `Cc1cc(Cl)cc(C(=O)NC(C)C)c1NC(=O)c1cc(Cn2ncc(C(F)(C(F)(F)F)C(F)(F)F)n2)nn1-c1ncccc1Cl` [Example 259]: the pest or weed control at 100 g/ha in series [1] (100 g/ha, after 7 days) was determined as 100%; in series [2] (100 g/ha, after 7 days) it was 100%. The compound also gave a chromatographic logP in series [3] of 4.3.
`CC(NC(=O)c1cc(Cl)cc(Cl)c1NC(=O)c1cc(Cn2cc(C(F)(C(F)(F)F)C(F)(F)F)nn2)nn1-c1ncccc1Cl)C1CC1` (stereo not drawn) [Example 242]: the pest or weed control at 100 g/ha stood at 100% in series [1] (100 g/ha, after 7 days) and 100% in series [2] (100 g/ha, after 7 days). Besides, the chromatographic logP in series [3] (setting [5]) amounted to 4.08.
Turning to `CNC(=O)c1cc(C#N)cc(C)c1NC(=O)c1cc(Cn2cc(C(F)(C(F)(F)F)C(F)(F)F)nn2)nn1-c1ccccc1Cl` [Example 295], the pest or weed control at 100 g/ha was 100% in series [1] (100 g/ha, after 7 days) and 100% in series [2] (100 g/ha, after 7 days). In addition, the chromatographic logP in series [3] (setting [5]) was 3.46.
Turning to `O=C(NCC1CC1)c1cc(Cl)cc(Cl)c1NC(=O)c1cc(Cn2cc(C(F)(C(F)(F)F)C(F)(F)F)nn2)nn1-c1ncccc1Cl` [Example 245], the pest or weed control at 100 g/ha in series [1] (100 g/ha, after 7 days) worked out at 100%; in series [2] (100 g/ha, after 7 days), 100%. Moreover, in series [3] (setting [5]), the chromatographic logP was found to be 3.84.
As to `CNC(=O)c1cc(Cl)cc(C)c1NC(=O)c1cc(Cn2cc(-c3ccc(Cl)cc3Cl)nn2)nn1-c1ncccc1Cl` [Example 18], the pest or weed control at 100 g/ha in series [1] (100 g/ha, after 7 days) was found to be 100%; in series [2] (100 g/ha, after 7 days) it was 100%. Also, the chromatographic logP in series [3] came out at 3.2.
Consider `Cc1cc(C#N)cc(C(=O)NC(C)(C)C)c1NC(=O)c1cc(Cn2nnc3cc(Br)c(C(F)(F)F)cc32)nn1-c1ncccc1Cl` [Example 109], for which the pest or weed control at 100 g/ha in series [1] (100 g/ha, after 7 days) turned out to be 100%; in series [2] (100 g/ha, after 7 days) it was 100%. For the same compound, in series [3] (setting [5]), the chromatographic logP was 4.02.
As to `Cc1cc(I)cc(C(=O)NC(C)C2CC2)c1NC(=O)c1cc(Cn2ncc(C(F)(F)C(F)(F)F)n2)nn1-c1ncccc1Cl` (stereo not drawn) [Example 357], the pest or weed control at 100 g/ha in series [1] (100 g/ha, after 7 days) worked out at 100%; in series [2] (100 g/ha, after 7 days), 100%. In series [3], this compound came in with a chromatographic logP of 4.45.
`Cc1cc(I)cc(C(=O)NCC2CC2)c1NC(=O)c1cc(Cn2cc(C(F)(F)C(F)(F)C(F)(F)F)nn2)nn1-c1ncccc1Cl` [Example 333]: the pest or weed control at 100 g/ha in series [1] and in series [2] was 100% throughout. Further, the chromatographic logP in series [3] (setting [4]) came to 4.13.
On to `Cc1cc(C#N)cc(C(=O)NC(C)(C)C)c1NC(=O)c1cc(Cn2ncc(C(F)(F)F)n2)nn1-c1ccccc1Cl` [Example 285], for which the pest or weed control at 100 g/ha in series [1] (100 g/ha, after 7 days) turned out to be 100%; in series [2] (100 g/ha, after 7 days), 100%. The chromatographic logP in series [3] (setting [5]) turned out to be 3.93.
For the compound `CCNC(=O)c1cc(I)cc(C)c1NC(=O)c1cc(Cn2ncc(C(F)(F)F)n2)nn1-c1ncccc1Cl` [Example 160], the pest or weed control at 100 g/ha in series [1] (100 g/ha, after 7 days) came out at 100%; in series [2] (100 g/ha, after 7 days), 100%. Also, in series [3], the chromatographic logP was found to be 3.5.
For `CCNC(=O)c1cc(I)cc(C)c1NC(=O)c1cc(Cn2cc(C(F)(F)C(F)(F)C(F)(F)F)nn2)nn1-c1ncccc1Cl` [Example 335], the pest or weed control at 100 g/ha in series [1] and in series [2] was 100% each time. Besides, the chromatographic logP in series [3] (setting [4]) was determined as 3.83.
With `Cc1cc(Cl)cc(C(=O)NC(C)C2CC2)c1NC(=O)c1cc(Cn2ncc(C(F)(C(F)(F)F)C(F)(F)F)n2)nn1-c1ncccc1Cl` (stereo not drawn) [Example 258], the pest or weed control at 100 g/ha in series [1] (100 g/ha, after 7 days) worked out at 100%; in series [2] (100 g/ha, after 7 days), 100%. Also, in series [3] (setting [5]), the chromatographic logP amounted to 4.61.
